In US20080234300A1, “Pyrimido[5,4-c] Quinoline-2, 4-Diamine Derivatives and Methods of Use Thereof” (WYETH, priority 2007, published 2008):

The compounds below were run against T1, PDK-1 (Homo sapiens, UniProt O15530) (assay: PDK-1 kinase inhibition ELISA assay (phosphorylation of His6-tagged SGK1 S422D by PDK-1)). Conditions: in vitro ELISA; phosphorylation of His6-tagged SGK1 (S422D) on Thr256 by PDK-1, 20 minutes, chemiluminescent detection.
T1 sequence (O15530 1-556): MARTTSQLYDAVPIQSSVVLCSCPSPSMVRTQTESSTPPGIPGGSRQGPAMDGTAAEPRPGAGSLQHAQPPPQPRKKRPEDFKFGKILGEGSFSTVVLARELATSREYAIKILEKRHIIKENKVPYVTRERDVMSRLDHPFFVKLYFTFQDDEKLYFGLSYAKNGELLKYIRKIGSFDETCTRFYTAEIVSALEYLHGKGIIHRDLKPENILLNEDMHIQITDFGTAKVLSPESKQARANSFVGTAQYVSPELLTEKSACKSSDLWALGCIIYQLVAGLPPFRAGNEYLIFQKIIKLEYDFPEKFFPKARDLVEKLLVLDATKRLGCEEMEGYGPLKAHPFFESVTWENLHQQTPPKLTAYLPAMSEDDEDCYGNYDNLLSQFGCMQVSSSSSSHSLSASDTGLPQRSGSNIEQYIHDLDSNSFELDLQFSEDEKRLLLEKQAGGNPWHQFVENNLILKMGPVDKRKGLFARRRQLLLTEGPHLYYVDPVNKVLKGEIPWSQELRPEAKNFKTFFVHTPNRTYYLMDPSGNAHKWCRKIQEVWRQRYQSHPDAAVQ
Type: biochemical
Method: The ability of an illustrative Pyrimido[5,4-c]quinoline-2,4-diamine Derivative to inhibit PDK-1 in vitro can be determined using an ELISA assay as described in Kobayashi et al., Biochem. J. 339:319-328 (1999) and Park et al., EMBO J. 18:3024-3033 (1999).
In an in vitro assay, His6-tagged SGK1 with S422D mutation (formerly Upstate Biotech, now Millipore) on Thr256 is allowed to be phosphorylated by PDK-1 in the presence of a Pyrimido[5,4-c]quinoline-2,4-diamine Derivative. After 20 minutes, the reaction is quenched via the addition of urea. The His6-tagged SGK1 is then bound to 96 well Ni-NTA HisSorb plates (Quiagen, Inc.) and phosphorylated SGK1 is quantitatively detected using rabbit derived anti-phospho SGK antibody (Cell Signaling Technology) as the primary antibody and horseradish peroxidase (HRP)— coupled anti-rabbit antibody (formerly Zymed, now Invitrogen) as the secondary antibody. HRP is then detected using a chemiluminescent substrate (Pierce Chemical Co.).
IC50 values of illustrative Pyrimido[5,4-c]quinoline-2,4-diamine Derivatives, shown in Table 4, are calculated using LSW Data Analysis package add-in for Excel (Microsoft).

IC50 [µM]	Structure (SMILES)
> 200	COCCOc1cc2ncc3c(N)nc(N4CCN(C)CC4)nc3c2cc1OC [Ia-7, 9-methoxy-8-(2-methoxyethoxy)-2-(4-methylpiperazin-1-yl)pyrimido[5,4-c]quinolin-4-amine]
> 200	CCNc1nc(N)c2cnc3cc(OCCOC)c(OC)cc3c2n1 [Ia-9, N2-ethyl-9-methoxy-8-(2-methoxyethoxy)pyrimido[5,4-c]quinoline-2,4-diamine]
> 200	COCCOc1cc2ncc3c(N)nc(N4CCC(=O)CC4)nc3c2cc1OC [Ia-13, 1-[4-amino-9-methoxy-8-(2-methoxyethoxy)pyrimido[5,4-c]quinolin-2-yl]piperidin-4-one]
2.15	COCCOc1cc2ncc3c(N)nc(N4CCC[C@@H]4COC)nc3c2cc1OC [Ia-15, 9-methoxy-8-(2-methoxyethoxy)-2-[(2R)-2-(methoxymethyl)pyrrolidin-1-yl]pyrimido[5,4-c]quinolin-4-amine]
5.43	COCCOc1cc2ncc3c(N)nc(NC4CCCCC4)nc3c2cc1OC [Ia-17, N2-cyclohexyl-9-methoxy-8-(2-methoxyethoxy)pyrimido[5,4-c]quinoline-2,4-diamine]
83.1	COCCOc1cc2ncc3c(N)nc(N4CCOc5ccccc5C4)nc3c2cc1OC [Ia-20, 2-(2,3-dihydro-1,4-benzoxazepin-4(5H)-yl)-9-methoxy-8-(2-methoxyethoxy)pyrimido[5,4-c]quinolin-4-amine]

The next lines start with the compound.

Structure (SMILES)	IC50 [µM]
COCCOc1cc2ncc3c(N)nc(N4CCC(O)C4)nc3c2cc1OC (stereo not shown) [Compound Ia-6, 1-[4-Amino-9-methoxy-8-(2-methoxyethoxy)pyrimido[5,4-c]quinolin-2-yl]pyrrolidin-3-ol]	36.3
COc1cc2ncc3c(N)nc(N)nc3c2cc1OC [Ia-1, 8,9-dimethoxypyrimido[5,4-c]quinoline-2,4-diamine]	12.2
CCOc1cc2ncc3c(N)nc(N)nc3c2cc1OCC [Ia-2, 8,9-diethoxypyrimido[5,4-c]quinoline-2,4-diamine]	18
CCOc1cc2ncc3c(N)nc(N4CCOCC4)nc3c2cc1OCC [Ia-4, 8,9-diethoxy-2-morpholin-4-ylpyrimido[5,4-c]quinolin-4-amine]	55.7
COCCOc1cc2ncc3c(N)nc(N4CCOCC4)nc3c2cc1OC [Ia-5, 9-methoxy-8-(2-methoxyethoxy)-2-morpholin-4-ylpyrimido[5,4-c]quinolin-4-amine]	> 200
COCCOc1cc2ncc3c(N)nc(N(C)C)nc3c2cc1OC [Ia-8, 9-methoxy-8-(2-methoxyethoxy)-N2,N2-dimethylpyrimido[5,4-c]quinoline-2,4-diamine]	9.33
COCCOc1cc2ncc3c(N)nc(N4CCC5(CC4)OCCO5)nc3c2cc1OC [Ia-10, 2-(1,4-dioxa-8-azaspiro[4.5]dec-8-yl)-9-methoxy-8-(2-methoxyethoxy)pyrimido[5,4-c]quinolin-4-amine]	50.5
COCCOc1cc2ncc3c(N)nc(N4CCCC4)nc3c2cc1OC [Ia-14, 9-methoxy-8-(2-methoxyethoxy)-2-pyrrolidin-1-ylpyrimido[5,4-c]quinolin-4-amine]	6.55
COCCOc1cc2ncc3c(N)nc(N4CCC[C@H]4COC)nc3c2cc1OC [Ia-16, 9-methoxy-8-(2-methoxyethoxy)-2-[(2S)-2-(methoxymethyl)pyrrolidin-1-yl]pyrimido[5,4-c]quinolin-4-amine]	39.6
COCCOc1cc2ncc3c(N)nc(N4CCN(c5ccccc5)CC4)nc3c2cc1OC [Ia-18, 9-methoxy-8-(2-methoxyethoxy)-2-(4-phenylpiperazin-1-yl)pyrimido[5,4-c]quinolin-4-amine]	111
